Values of other authors as cited in article PMC8148172, “Evaluation of a Keratin 1 Targeting Peptide-Doxorubicin Conjugate in a Mouse Model of Triple-Negative Breast Cancer” (Pharmaceutics, 2021).

What was measured:
TNBC = tested on: TNBC; parameters: method as in PMID 28520410
[1] = parameters: method as in PMID 27370248, PMID 16515518; details: as conjugate with circulating albumin

Compound | targeting of TNBC relative to linear 18-4 peptide (TNBC) | greater doses of Dox administered with minimal cardiotoxicity [1]
N- to C-terminal cyclized WXEAAYQkFL [cyclic analogue of 18-4] | 2–3 fold | 
COc1cccc2c1C(=O)c1c(O)c3c(c(O)c1C2=O)C[C@@](O)(/C(CO)=N/NC(=O)CCCCCN1C(=O)C=CC1=O)C[C@@H]3O[C@H]1C[C@H](N)[C@H](O)[C@H](C)O1 [Aldox, aldoxorubicin] |  | 3–4 ×
